The values below come from ChEMBL document CHEMBL5512637, “Development of Membrane-Targeting Fluorescent 2-Phenyl-1H-phenanthro[9,10-d]imidazole-Antimicrobial Peptide Mimic Conjugates against Methicillin-Resistant Staphylococcus aureus” (J Med Chem, 2024).

Values after ≈ are worked out from the molar mass of the structure shown.

For data set [1], the system named is Staphylococcus aureus. Briefly: Antibacterial activity against methicillin-resistant Staphylococcus aureus clinical isolate M-5 incubated for 16 to 18 hrs CLSI based by microbroth dilution assay. Particulars: time 16-18 hrs. The format is functional. Background: Dilution methods test growth across graded concentrations, often in twofold steps.
In data set [2] the test system is Staphylococcus aureus. Briefly: Antibacterial activity against methicillin-resistant Staphylococcus aureus clinical isolate M-3 incubated for 16 to 18 hrs CLSI based by microbroth dilution assay. The format is functional. Particulars: time 16-18 hrs.
In data set [3] the test system is Staphylococcus aureus. Briefly: Antibacterial activity against Staphylococcus aureus ATCC 29213 incubated for 16 to 18 hrs CLSI based by microbroth dilution assay. The conditions noted are these: time 16-18 hrs. The class given is functional.
Data set [4] concerns Staphylococcus aureus. Briefly: Antibacterial activity against methicillin-resistant Staphylococcus aureus clinical isolate M-6 incubated for 16 to 18 hrs CLSI based by microbroth dilution assay. The format is functional. The conditions noted are these: time 16-18 hrs.
Data set [5] is described as follows: Hemolytic activity in sheep erythrocytes incubated for 1 hr by absorbance based assay. The format is toxicity, cell-based, Ovis aries, Erythrocyte.
Data set [6] deals with Escherichia coli. Briefly: Antibacterial activity against Escherichia coli ATCC 25922 incubated for 16 to 18 hrs CLSI based by microbroth dilution assay. The class given is functional. Particulars: time 16-18 hrs.
Data set [7] concerns Staphylococcus aureus. Briefly: Antibacterial activity against methicillin-resistant Staphylococcus aureus clinical isolate M-1 incubated for 16 to 18 hrs CLSI based by microbroth dilution assay. Particulars: time 16-18 hrs. The class given is functional.
Data set [8] relates to Staphylococcus aureus. Briefly: Antibacterial activity against methicillin-resistant Staphylococcus aureus clinical isolate M-9 incubated for 16 to 18 hrs CLSI based by microbroth dilution assay. The format is functional. The conditions noted are these: time 16-18 hrs.
Data set [9] has as its system Staphylococcus aureus. Briefly: Antibacterial activity against methicillin-resistant Staphylococcus aureus clinical isolate M-7 incubated for 16 to 18 hrs CLSI based by microbroth dilution assay. The format is functional. Particulars: time 16-18 hrs.
Data set [10] concerns Staphylococcus aureus. Briefly: Antibacterial activity against methicillin-resistant Staphylococcus aureus clinical isolate M-10 incubated for 16 to 18 hrs CLSI based by microbroth dilution assay. The class given is functional. The conditions noted are these: time 16-18 hrs.
For data set [11], the system named is Staphylococcus aureus. Briefly: Antibacterial activity against methicillin-resistant Staphylococcus aureus clinical isolate M-8 incubated for 16 to 18 hrs CLSI based by microbroth dilution assay. The format is functional. Particulars: time 16-18 hrs.
Data set [12] can be described thus: Selectivity index, ratio of HC50 for sheep erythrocytes to MIC for Staphylococcus aureus ATCC 29213. Particulars: read-out: Selectivity Index. The class given is toxicity.
Data set [13] relates to Staphylococcus aureus. Briefly: Antibacterial activity against methicillin-resistant Staphylococcus aureus clinical isolate M-2 incubated for 16 to 18 hrs CLSI based by microbroth dilution assay. The class given is functional. Particulars: time 16-18 hrs.
For data set [14], the system named is Staphylococcus aureus. Briefly: Antibacterial activity against methicillin-resistant Staphylococcus aureus clinical isolate M-4 incubated for 16 to 18 hrs CLSI based by microbroth dilution assay. The format is functional. The conditions noted are these: time 16-18 hrs.

As to `CC(C)N(C(=O)C[N+](C)(C)CCCCn1c(-c2ccc(N(C)C)cc2)nc2c3ccccc3c3ccccc3c21)C(C)C.[Br-]`, the MIC in [1] is 8 µg/mL; in [2], 8 µg/mL; in [3], 8 µg/mL; in data set [4], 8 µg/mL; in data set [6] it was greater than 128 µg/mL; in data set [7], 8 µg/mL. Besides, the MIC in data set [8], in data set [9], in data set [10], in data set [11], in [13] and in data set [14] was 8 µg/mL in each case. For the same compound, the HC50 at 1 h in [5] was greater than 640 µg/mL. Also, the selectivity ratio in [12] was greater than 80.

Turning to `CCCN(CCC)C(=O)C[N+](C)(C)CCCCCn1c(-c2ccc(N(C)C)cc2)nc2c3ccccc3c3ccccc3c21.[Br-]`, the minimal inhibitory concentration (MIC) in data set [1] was determined as 8 µg/mL; in data set [2] it was 2 µg/mL; in data set [3], 2 µg/mL; in data set [4], 2 µg/mL; in data set [6], 128 µg/mL; in data set [7] it was 4 µg/mL. Moreover, the MIC in [8] was determined as 2 µg/mL; in [9], 2 µg/mL; in [10] it was 4 µg/mL; in [11] it was 2 µg/mL; in data set [13], 4 µg/mL; in [14], 2 µg/mL. This compound returned an HC50 at 1 h in data set [5] of 99.4 µg/mL. The selectivity ratio in data set [12] stood at 49.7.

For `CCNC(=O)C[N+](C)(C)CCCCCn1c(-c2ccc(N(C)C)cc2)nc2c3ccccc3c3ccccc3c21.[Br-]`, the minimal inhibitory concentration (MIC) in data set [1] was determined as 32 µg/mL; in data set [2], 32 µg/mL; in data set [3] it was 16 µg/mL; in [4], 32 µg/mL; in data set [6], 128 µg/mL; in data set [7], 32 µg/mL. Also, the minimum inhibitory concentration (MIC) in [8] turned out to be 32 µg/mL; in [9] it was 16 µg/mL; in data set [10], 32 µg/mL; in [11], 32 µg/mL; in data set [13] it was 32 µg/mL; in data set [14] it was 32 µg/mL. This compound also yielded an HC50 at 1 h in data set [5] greater than 640 µg/mL. In data set [12], the selectivity ratio was greater than 40.

As for `CC(C)CN(CC(C)C)C(=O)C[N+](C)(C)CCCCCn1c(-c2ccc(N(C)C)cc2)nc2c3ccccc3c3ccccc3c21.[Br-]`, the MIC in data set [1] is 2 µg/mL; in data set [2], 1 µg/mL; in data set [3], 1 µg/mL; in data set [4], 1 µg/mL; in data set [6], greater than 128 µg/mL; in data set [7], 1 µg/mL. Moreover, the minimum inhibitory concentration (MIC) in data set [8] worked out at 1 µg/mL; in [9] it was 1 µg/mL; in data set [10], 2 µg/mL; in data set [11] it was 1 µg/mL; in data set [13], 1 µg/mL; in [14], 1 µg/mL. The same compound came in with an HC50 at 1 h in [5] of 247 µg/mL. For the same compound, the selectivity ratio in data set [12] is 247.

For `CCN(CC)C(=O)C[N+](C)(C)CCCn1c(-c2ccc(N(C)C)cc2)nc2c3ccccc3c3ccccc3c21.[Br-]`, the MIC in data set [1] was 64 µg/mL; in [2] it was 64 µg/mL; in [3], 64 µg/mL; in data set [4] it was 128 µg/mL; in data set [6], greater than 128 µg/mL; in data set [7], 64 µg/mL. For the same compound, the minimal inhibitory concentration (MIC) in [8] was determined as 64 µg/mL; in data set [9], 64 µg/mL; in data set [10], 64 µg/mL; in data set [11], 128 µg/mL; in data set [13], 64 µg/mL; in [14] it was 64 µg/mL. In data set [5], the HC50 at 1 h was greater than 640 µg/mL. Also, the selectivity ratio in data set [12] was greater than 10.

For the compound `O=C1C(=O)c2ccccc2-c2ccccc21` [9,10-PHENANTHRENEQUINONE], the minimum inhibitory concentration (MIC) was 4 µg/mL (≈ 19.2 µM) in data set [1]; 4 µg/mL (≈ 19.2 µM) in data set [2]; 4 µg/mL (≈ 19.2 µM) in [3]; 4 µg/mL (≈ 19.2 µM) in [4]; greater than 64 µg/mL in data set [6]; 2 µg/mL (≈ 9.61 µM) in [7]. Moreover, the MIC turned out to be 8 µg/mL (≈ 38.4 µM) in data set [8]; 4 µg/mL (≈ 19.2 µM) in data set [9]; 2 µg/mL (≈ 9.61 µM) in data set [10]; 2 µg/mL (≈ 9.61 µM) in [11]; 4 µg/mL (≈ 19.2 µM) in [13]; 4 µg/mL (≈ 19.2 µM) in data set [14]. In data set [5], this compound gave a 50% haemolytic concentration (HC50) at 1 h greater than 320 µg/mL. Besides, the selectivity ratio in data set [12] was greater than 80.

One may read the MIC as the lowest concentration found to suppress growth. What is called HC50 is the concentration that lyses half of the red blood cells.
